US20160264593A1 (priority 2013, published 2016)
Values joined by “and” are separate entries in the source; they are usually repeats but may differ in a detail not shown here. Identical values can stand only once.

How the values were obtained:
PP2A [1] = experiment: PP2A activity in mouse livers after IP dosing (PP2A immunoprecipitation phosphatase assay, malachite green); format: in vivo, Balb/c mice; settings: for Average Conc. (group of 3 mice) / Average Relative Activity (group, vehicle = 100) / Conc. (phosphate, single reading, per mouse) / Mean Conc. (per mouse) / Mean Conc. less IgG blank (per mouse) / Relative Conc. (per mouse, to vehicle) / Relative PP2A Activity (per mouse, vehicle = 100): liver
Method: (§1) Coomassie (Bradford) Protein Assay Kit (Pierce); PP2A Immunoprecipitation Phosphatase Assay Kit (Millipore); Lysate preparation for low endogenous phosphate: 20 mM imidazole-HCl, 2 mM EDTA, 2 mM EGTA, 1 mM PMSF, 1 mM benzamidine, 10 ug/ml each of aprotinin, leupeptin, antipain, soybean trypsin inhibitor; Normal Mouse IgG (Millipore); Okadaic acid (OA) (Tocris); DMSO (Sigma).
(§2) • Species: Mus Musculus • Strain: Balb/c mice • Age: 6-8 weeks • Sex: female • Body weight: 18-22 g • Vendor: Shanghai Laboratory Animal Center, Shanghai, China; • Number of animals: 66 Balb/c mice plus spare
(§3) The mice were kept in laminar flow rooms at constant temperature and humidity with 4 animals in each cage. • Temperature: 20-25 • Humidity: 40-70%. • Light cycle: 12 hours light and 12 hours dark. • Cages: Made of polycarbonate. The size is 29 cm×17.5 cm×12 cm (L×w×H). The bedding material is wood debris, which is changed once per week. • Diet: Animals had free access to irradiation sterilized dry granule food during the entire study period. • Water: Animals had free access to sterile drinking water. • Cage identification: the identification labels for each cage contained the following information: number of animals, sex, strain, date arrival, treatment, study number, group number, and the starting date of the treatment. • Animal identification: Animals were marked by ear punch.
(§4) All the procedures related to animal handling, care, and the treatment in this study were performed according to guidelines approved by the Institutional Animal Care and Use Committee (IACUC) of WuXi AppTec (Shanghai), following the guidance of the Association for Assessment and Accreditation of Laboratory Animal Care (AAALAC). At the time of routine monitoring, the animals were checked and recorded for any effects of tumor growth on normal behavior such as mobility, food and water consumption (by looking only), body weight gain/loss, eye/hair matting and any other abnormal effect.
(§5) 1. Proper amount of the compounds were weighed. 2. The compounds were dissolved in 4% sterile sodium bicarbonate. 3. All of the compounds should be well dissolved and clear. 4. The compounds should be kept cold once in solution and injected within an hour. 5. The mice were administered intraperitoneally according to their body weights, 20 g mouse was treated with 0.2 ml compound solution. 6. Mice were treated with vehicle and compounds according to Table 1. 7. 3 hours after the dose, 3 mice from each group were euthanized by
(§6) CO2 exposure, and the brains and left lobe of livers were taken and snap-frozen in liquid nitrogen immediately. 6 hours after the dose, the other 3 mice from each group were euthanized by CO2 exposure, and the brains and left lobe of livers were taken and snap-frozen in liquid nitrogen immediately.
(§7) Preparation of malachite green phosphate detection solution Added […] of Solution B to each 1 mL of Solution A, kept at room temperature during use. […] of mixed solution AB is used per assay well.
(§8) Diluted 125 mL Phosphate Standard (Solution C) with 1125 mL of distilled water to make 0.1 mM working solution. The solution was used to prepare a phosphate standard curve as described in the table below.
(§9) 1. 25 μL of each phosphate standards was transferred to wells of microliter plate. 2. Added 100 μL of Malachite Green Solution AB. Mixed carefully without creating bubbles. 3. Cultured for 15 minutes at RT. 4. Measured absorbance at a wavelength between 650 nm in a microliter plate reader.
(§10) 1. Dissolved 1 mg Threonine Phosphopeptide (Catalog #12-219) in 1.10 mL of distilled water to prepare a 1 mM solution. 2. Aliquot peptide solution and stored at ˜20° C. as necessary.
(§11) 1. Mouse brain or liver was homogenized using lysis buffer (25 g/L), centrifuged at 12000 g for 10 minutes at […], and the supernatants were collected. 2. The protein was quantitated, and 240 μg of mouse brain or liver lysate was taken to assay phosphatase activity. 3. […]

PP2A [2] = experiment: PP2A activity in mouse brains after IP dosing (PP2A immunoprecipitation phosphatase assay, malachite green); format: in vivo, Balb/c mice; parameters: Average Conc. (group of 3 mice): unit not given here; settings: for Average Conc. (group of 3 mice) / Average Relative Activity (group, vehicle = 100) / Conc. (phosphate, single reading, per mouse) / Mean Conc. (per mouse) / Mean Conc. less IgG blank (per mouse) / Relative Conc. (per mouse, to vehicle) / Relative PP2A Activity (per mouse, vehicle = 100): brain
Method: as §1, §2, §3, §4, §5, §6, §7, §8, §9, §10, §11

[3] = high dose IP (mpk: 100 1.5, 113 2.2, 151 1.6, 157 2.0), 3 h
[4] = high dose IP (mpk: 100 1.5, 113 2.2, 151 1.6, 157 2.0), 6 h
[5] = low dose IP (mpk: 100 0.75, 113 1.1, 151 0.8, 153 0.85, 157 1.0), 3 h
[6] = low dose IP (mpk: 100 0.75, 113 1.1, 151 0.8, 153 0.85, 157 1.0), 6 h
[7] = high dose IP (mpk: 100 1.5, 113 2.2, 151 1.6, 153 1.7, 157 2.0), 3 h
[8] = high dose IP (mpk: 100 1.5, 113 2.2, 151 1.6, 153 1.7, 157 2.0), 6 h

- activity of PP2A in livers as compared with vehicle (statement) (PP2A [1]; high dose IP, 3 h): significantly inhibited
- activity of PP2A in livers as compared with vehicle (statement) (PP2A [1]; high dose IP, 6 h post treatment): significantly inhibited
- activity of PP2A in livers as compared with vehicle (statement) (PP2A [1]; low dose IP, 3 h): significantly inhibited
- activity of PP2A in livers as compared with vehicle (statement) (PP2A [1]; low dose IP, 6 h): significantly inhibited
- activity of PP2A in brains (statement) (PP2A [2]; high dose IP, 3 h): most potent
Structure (SMILES): CN1CCN(C(=O)C2C(C(=O)OCC(Cl)(Cl)Cl)[C@H]3CC[C@@H]2O3)CC1 (stereo partly shown) [Compound 113]
- Average Conc. (group of 3 mice) (PP2A [1]; [3]): 138.31
- Average Relative Activity (group, vehicle = 100) (PP2A [1]; [3]): 35.3
- Conc. (phosphate, single reading, per mouse) (PP2A [1]; [3]): 200.67 and 204.55 and 192.25 and 216.22 and 155.1 and 163.31
- Mean Conc. (per mouse) (PP2A [1]; [3]): 202.61 and 204.23 and 159.21
- Mean Conc. less IgG blank (per mouse) (PP2A [1]; [3]): 152.24 and 153.86 and 108.83
- Relative Conc. (per mouse, to vehicle) (PP2A [1]; [3]): 0.39 (2×) and 0.28
- Relative PP2A Activity (per mouse, vehicle = 100) (PP2A [1]; [3]): 38.8 and 39.21 and 27.74
- Average Conc. (group of 3 mice) (PP2A [1]; [4]): 104.16
- Average Relative Activity (group, vehicle = 100) (PP2A [1]; [4]): 26.6
- Conc. (phosphate, single reading, per mouse) (PP2A [1]; [4]): 246.88 and 269.98 and 80.17 and 78.45 and 124.87 and 126.82
- Mean Conc. (per mouse) (PP2A [1]; [4]): 258.43 and 79.31 and 125.84
- Mean Conc. less IgG blank (per mouse) (PP2A [1]; [4]): 208.06 and 28.94 and 75.47
- Relative Conc. (per mouse, to vehicle) (PP2A [1]; [4]): 0.53 and 0.07 and 0.19
- Relative PP2A Activity (per mouse, vehicle = 100) (PP2A [1]; [4]): 53.13 and 7.39 and 19.27
- Average Conc. (group of 3 mice) (PP2A [1]; [5]): 179.91
- Average Relative Activity (group, vehicle = 100) (PP2A [1]; [5]): 45.9
- Conc. (phosphate, single reading, per mouse) (PP2A [1]; [5]): 258.54 and 266.31 and 211.9 and 190.3 and 226.36 and 228.31
- Mean Conc. (per mouse) (PP2A [1]; [5]): 262.43 and 201.1 and 227.34
- Mean Conc. less IgG blank (per mouse) (PP2A [1]; [5]): 212.05 and 150.73 and 176.96
- Relative Conc. (per mouse, to vehicle) (PP2A [1]; [5]): 0.54 and 0.38 and 0.45
- Relative PP2A Activity (per mouse, vehicle = 100) (PP2A [1]; [5]): 54.04 and 38.41 and 45.1
- Average Conc. (group of 3 mice) (PP2A [1]; [6]): 212.74
- Average Relative Activity (group, vehicle = 100) (PP2A [1]; [6]): 54.3
- Conc. (phosphate, single reading, per mouse) (PP2A [1]; [6]): 229.82 and 254.44 and 279.7 and 291.58 and 266.31 and 256.81
- Mean Conc. (per mouse) (PP2A [1]; [6]): 242.13 and 285.64 and 261.56
- Mean Conc. less IgG blank (per mouse) (PP2A [1]; [6]): 191.76 and 235.27 and 211.19
- Relative Conc. (per mouse, to vehicle) (PP2A [1]; [6]): 0.49 and 0.6 and 0.54
- Relative PP2A Activity (per mouse, vehicle = 100) (PP2A [1]; [6]): 48.97 and 60.08 and 53.93
- Average Conc. (group of 3 mice) (PP2A [2]; [7]): 892.56
- Average Relative Activity (group, vehicle = 100) (PP2A [2]; [7]): 60.76
- Conc. (phosphate, single reading, per mouse) (PP2A [2]; [7]): 1058.59 and 1029.91 and 726.72 and 714.92 and 925.07 and 938.33
- Mean Conc. (per mouse) (PP2A [2]; [7]): 1044.25 and 720.82 and 931.70
- Mean Conc. less IgG blank (per mouse) (PP2A [2]; [7]): 1037.88 and 714.45 and 925.33
- Relative Conc. (per mouse, to vehicle) (PP2A [2]; [7]): 0.71 and 0.49 and 0.64
- Relative PP2A Activity (per mouse, vehicle = 100) (PP2A [2]; [7]): 70.65 and 48.63 and 62.99
- Average Conc. (group of 3 mice) (PP2A [2]; [8]): 897.74
- Average Relative Activity (group, vehicle = 100) (PP2A [2]; [8]): 64.36
- Conc. (phosphate, single reading, per mouse) (PP2A [2]; [8]): 366.91 and 317.74 and 1221.50 and 1051.60 and 1382.49 and 1084.37
- Mean Conc. (per mouse) (PP2A [2]; [8]): 342.32 and 1136.55 and 1233.43
- Mean Conc. less IgG blank (per mouse) (PP2A [2]; [8]): 335.96 and 1130.19 and 1227.07
- Relative Conc. (per mouse, to vehicle) (PP2A [2]; [8]): 0.24 and 0.82 and 0.89
- Relative PP2A Activity (per mouse, vehicle = 100) (PP2A [2]; [8]): 24.09 and 81.03 and 87.97
- Average Conc. (group of 3 mice) (PP2A [2]; [5]): 1540.65
- Average Relative Activity (group, vehicle = 100) (PP2A [2]; [5]): 104.88
- Conc. (phosphate, single reading, per mouse) (PP2A [2]; [5]): 1602.05 and 1620.37 and 1450.70 and 1578.91 and 1521.79 and 1508.30
- Mean Conc. (per mouse) (PP2A [2]; [5]): 1611.21 and 1514.81 and 1515.05
- Mean Conc. less IgG blank (per mouse) (PP2A [2]; [5]): 1604.84 and 1508.44 and 1508.68
- Relative Conc. (per mouse, to vehicle) (PP2A [2]; [5]): 1.10 and 1.04 (2×)
- Relative PP2A Activity (per mouse, vehicle = 100) (PP2A [2]; [5]): 109.24 and 102.68 and 102.70
- Average Conc. (group of 3 mice) (PP2A [2]; [6]): 1212.05
- Average Relative Activity (group, vehicle = 100) (PP2A [2]; [6]): 86.90
- Conc. (phosphate, single reading, per mouse) (PP2A [2]; [6]): 1379.36 and 1456.24 and 1108.96 and 1143.66 and 1072.56 and 1149.69
- Mean Conc. (per mouse) (PP2A [2]; [6]): 1417.80 and 1126.31 and 1111.12
- Mean Conc. less IgG blank (per mouse) (PP2A [2]; [6]): 1411.44 and 1119.94 and 1104.76
- Relative Conc. (per mouse, to vehicle) (PP2A [2]; [6]): 1.02 and 0.81 and 0.80
- Relative PP2A Activity (per mouse, vehicle = 100) (PP2A [2]; [6]): 101.19 and 80.29 and 79.21
